“And” between values parts separate entries of the source, which are not always exact repeats. Equal values may be shown once. “Also recorded” adds a separate entry of the source.
Tests used:
[1] = in vivo; cited from earlier work
[2] = system: COX (cyclooxygenase); conditions: cited from earlier work
[3] = system: AOM-treated rat model of colon carcinogenesis; conditions: in vivo; cited from earlier work
[4] = system: colon mucosal prostaglandins; conditions: cited from earlier work
[5] = system: colon cancer incidence; conditions: cited from earlier work
[6] = system: tumors harboring Ki-ras mutations in AOM-treated rats; conditions: cited from earlier work
[7] = system: carcinogenesis in rodent/animal models; conditions: in vivo; cited from earlier work
[8] = cited from earlier work
[9] = system: prostaglandin E2 (PGE2) levels in flat mucosa; assay: Ibuprofen one month trial, PGE2 levels in flat mucosa; conditions: 300 mg/day
[10] = system: Caco-2 parental cells; assay: Induction of apoptosis (light microscopy) in Caco-2 parental cells; format: cell-based, human; conditions: 120 μM sulindac sulfide; Caco-2 parental
Experimental: (§1) FIG. 3. […] Apoptosis was determined by light microscopy.
(§2) FIG. 8. […] Cells were grown over a period of 6 days. Cells were harvested at various days (0, 2, 4 and 6 days), spun onto slides and stained. Apoptosis was determined by light microscopy. Percentage of apoptotic cells was calculated as the number of apoptotic cells out of the total cells counted times 100. At least 500 cells were counted for each sample.
(§3) Cells were grown over a period of 6 days. Cells were harvested at various days (0, 2, 4 and 6 days), spun onto slides and stained. Apoptosis was determined by light microscopy. Percentage of apoptotic cells was calculated as the number of apoptotic cells out of the total cells counted times 100.

[11] = system: Ki-ras clone #66; assay: Induction of apoptosis (light microscopy) in Ki-ras clone 66; conditions: 120 μM sulindac sulfide; printed 'clone 6'
[12] = system: Caco-2 and clone 60 cells; assay: Clonogenic assay (colony-forming efficiency), Caco-2 and clone 60 cells; format: cell-based, human
[13] = system: Caco-2 parental cells, Ki-ras clone #60 and Ki-ras clone #66; assay: Viable cell number (trypan blue dye exclusion), growth of Caco-2 parental and Ki-ras transfected cells; format: cell-based, human
[14] = system: Ki-ras transfected Caco-2 cells; assay: Induction of apoptosis in Ki-ras transfected versus parental Caco-2 cells; format: cell-based, human; conditions: 120 μM sulfide, 600 μM sulfone
Experimental: as §1

[15] = system: Ki-ras clone #60; assay: Induction of apoptosis (light microscopy) in Ki-ras clone 60; format: cell-based, human; conditions: 120 μM sulindac sulfide
Experimental: as §1, §2, §3

[16] = human, in vivo, po; cited from earlier work
[17] = system: rat enterocytes; conditions: cited from earlier work

## CC1(C)S[C@@H]2[C@H](NC(=O)[C@H](N)c3ccc(O)cc3)C(=O)N2[C@H]1C(=O)O [amoxicillin]
[1]
  adverse effects: diarrhea and super-infections

## CC(=O)Oc1ccccc1C(=O)O [aspirin]
[2]
  COX / prostaglandin synthesis inhibition: inhibitor of cyclooxygenase
[3]
  inhibition of colon carcinogenesis in AOM-treated rat model: effectively inhibit colon carcinogenesis
[4]; in vivo
  lowest dose decreasing PGF2α in colon mucosa: 40 mg
  threshold dose of effect on colon mucosa: 81 mg and 80 mg
[4]; low doses, another group of investigators
  effect on colon mucosal prostaglandins: no such effect on colon mucosal prostaglandins
[4]; low doses
  upper gastrointestinal mucosa prostaglandins: substantial reduction of prostaglandins; also recorded: substantial education of prostaglandins
[5]; in vivo
  beneficial effect, three large cohort studies: conflicting reports on the beneficial effect
[5]; weekly total dose
  weekly total dose with evident effect on colon cancer incidence: ≥ 1000 mg

## CC[C@H]1OC(=O)[C@H](C)[C@@H](O[C@H]2C[C@@](C)(OC)[C@@H](O)[C@H](C)O2)[C@H](C)[C@@H](O[C@@H]2O[C@H](C)C[C@H](N(C)C)[C@H]2O)[C@](C)(OC)C[C@@H](C)C(=O)[C@H](C)[C@@H](O)[C@]1(C)O [clarithromycin]
[1]
  diarrhea: 10%
  pseudomembranous colitis: 1%

## COc1ccc2c(c1)c(CC(=O)O)c(C)n2C(=O)c1ccc(Cl)cc1 [indomethacin]
[2]
  COX / prostaglandin synthesis inhibition: prostaglandin synthase inhibitor
[3]
  inhibition of colon carcinogenesis in AOM-treated rat model: effectively inhibit colon carcinogenesis

## CN1C(C(=O)Nc2ccccn2)=C(O)c2ccccc2S1(=O)=O [piroxicam, 4-Hydroxy-2-methyl-N-2-pyridyl-2H1,2-benzothiazine-3-carboxamide 1,1-dioxide]
[6]
  Ki-ras mutation / tumors harboring an activated Ki-ras: reduced Ki-ras mutation frequencies
  amount of biochemically active p21 ras in existing tumors: reduced the amount of biochemically active p21 ras in existing tumors
[6]; reduced from 90%
  tumors harboring Ki-ras mutations: 25%
[7]
  chemoprevention / inhibition of tumor development in animal models: the most effective chemoprevention agent in animal models
[8]; IIb trial / meta-analysis
  side effects: has more side effects than other NSAIDs
[8]; human, in vivo
  half-life: long half-life
  most frequently reported side effects: Gastrointestinal complaints
[3]
  inhibition of colon carcinogenesis in AOM-treated rat model: effectively inhibit colon carcinogenesis

## CC(C)Cc1ccc(C(C)C(=O)O)cc1 (centres unmarked) [ibuprofen]
[9]
  PGE2 levels in flat mucosa: significant decrease
[7]
  chemoprevention / inhibition of tumor development in animal models: less effective than other NSAIDs
[3]
  inhibition of colon carcinogenesis in AOM-treated rat model: effectively inhibit colon carcinogenesis

## COc1ccc2[nH]c([S+]([O-])Cc3ncc(C)c(OC)c3C)nc2c1 (centres unmarked) [omeprazole]
[1]
  dizziness: 2%

## CSc1ccc(/C=C2/C(C)=C(CC(=O)O)c3cc(F)ccc32)cc1 [sulindac sulfide]
[10]
  time of peak apoptosis: 8 days
[11]
  time of peak apoptosis: 6 days
[12]; 5 mM DFMO, increasing concentrations of sulindac sulfide
  survival normalized to like DFMO-treated controls: the survival rates of the DFMO-treated cells mirrored those of the non-DFMO-treated cells
[12]; Homo sapiens, Caco-2, 24 h, read-out: 50% decrease in cell number
  IC50: ~225 µM
[12]; increasing concentrations, 24 h
  effect of Ki-ras activation on viability / colony-forming efficiency after sulindac metabolite: did not reveal any differences in colony-forming efficiency between Ki-ras transfectants and parental Caco-2 cells
[13]; 120 μM sulindac sulfide or 600 μM sulindac sulfone
  Ki-ras selective toxicity / Ki-ras-specific effect on growth: nor did sulindac sulfide or sulfone exert a Ki-ras-specific effect on growth
[13]; 120 μM sulindac sulfide, 10-day growth
  number of viable cells: remained relatively unchanged throughout the 10-day growth period
[14]
  onset of apoptosis in Ki-ras transfected cells compared with parental cells: accelerate the onset of apoptosis; also recorded: occurred several days earlier in Ki-ras transfected cells than in parental cells
[15]
  time of peak apoptosis: 4 days
[16]
  mean half-life: 16.4 h
[17]
  resistance to apoptosis on Ki-ras activation: confers resistance to apoptosis

## Cc1ncc([N+](=O)[O-])n1CCO [metronidazole]
[1]
  disulfiram-like reaction with alcohol ingestion: 20%
  rash: 5%

## Cc1c(OCC(F)(F)F)ccnc1C[S+]([O-])c1nc2ccccc2[nH]1 (centres unmarked) [lansoprazole]
[1]
  diarrhea: 8%
  headache: 5%
  nausea: 3%

From patent US6258845A (priority 1999, dated 2001)
